Read-outs that look alike come from different tables or passages of the source.
System: MCF7 cells
Assay: crystal violet assay, cellular viability
Type: cell-based, human
Conditions: Homo sapiens; for IC50: MCF7, 48 h, read-out: IC50 cellular viability
Method: Compound 1 and compound 2 were tested in their efficacy to kill malignant MCF7 cancer cells. Briefly, 10.000 cells per well were seeded in a 96-well plat on one day and the next day selected compounds were added and incubated with the cells for 48 hrs. The cells were then fixed with 4% paraformaldehyde, stained with 0.05% crystal violet, washed with PBS, and solubilized in 1% SDS. The absorbance of the plate at 595 nm was then measured, quantifying the number of viable cells.
A number of compounds of the present invention were tested for cytotoxicity towards at least some of human breast cancer cell lines (MCF7, MDA-MB-231), human fibroblast (BJ) and murine triple negative breast cancer cell line 4T1 (Table 2).

CC(=O)ON(CCCCCNC(=O)CCC(=O)N(CCCCCNC(=O)CCC(=O)N(CCCCCN(CCCCCCCCCC[P+](c1ccccc1)(c1ccccc1)c1ccccc1)CCCCCCCCCC[P+](c1ccccc1)(c1ccccc1)c1ccccc1)OC(C)=O)OC(C)=O)C(C)=O [Compound 16, (15,26-diacetoxy-4-acetyl-2,11,14,22,25-pentaoxo-32-(10-(triphenylphosphonio)decyl)-3-oxa-4,10,15,21,26,32-hexaazadotetracontan-32-ium-42-yl)triphenylphosphonium trichloride]
IC50: 800 nM

CC(=O)N(O)CCCCCNC(=O)CCC(=O)N(O)CCCCCNC(=O)CCC(=O)N(O)CCCCCN(CCCCOCCCCCCCCCC[P+](c1ccccc1)(c1ccccc1)c1ccccc1)CCCCOCCCCCCCCCC[P+](c1ccccc1)(c1ccccc1)c1ccccc1 [Compound 15, 3-(diphenyl(3,14,25-trihydroxy-2,10,13,21,24-pentaoxo-31-(4-((10-(triphenylphosphonio)decyl)oxy)butyl)-36-oxa-3,9,14,20,25,31-hexaazahexatetracontan-31-ium-46-yl)phosphonio)benzen-1-ide trichloride]
IC50 (crystal violet): 500 nM

CCCCCCCCCCCCCCCC(=O)ON(CCCCCNC(=O)CCC(=O)N(CCCCCNC(=O)CCC(=O)N(CCCCCN(CCCCCCCCCC[P+](c1ccccc1)(c1ccccc1)c1ccccc1)CCCCCCCCCC[P+](c1ccccc1)(c1ccccc1)c1ccccc1)OC(=O)CCCCCCCCCCCCCCC)OC(=O)CCCCCCCCCCCCCCC)C(C)=O [Compound 17, (39-acetyl-18,21,29,32,41-pentaoxo-17,28-bis(palmitoyloxy)-11-(10-(triphenylphosphonio)decyl)-40-oxa-11,17,22,28,33,39-hexaazahexapentacontyl)triphenylphosphonium trichloride]
IC50 (crystal violet): 700 nM

CCCCCCCC[P+](CCCCCCCC)(CCCCCCCC)CCCCCCCCCCNCCCCCN(O)C(=O)CCC(=O)NCCCCCN(O)C(=O)CCC(=O)NCCCCCN(O)C(C)=O [Compound 11, 3,14,25-trihydroxy-42,42-dioctyl-2,10,13,21,24-pentaoxo-3,9,14,20,25,31-hexaaza-42-phosphapentacontane-31,42-diium dichloride]
IC50 (crystal violet): 4000 nM

CC(=O)N(O)CCCCCNC(=O)CCC(=O)N(O)CCCCCNC(=O)CCC(=O)N(O)CCCCCNCCCCCCCCCC[P+](c1ccccc1)(c1ccccc1)c1ccccc1 [Compound 1, Triphenyl(3,14,25-trihydroxy-2,10,13,21,24-pentaoxo-3,9,14,20,25,31-hexaazahentetracontan-41-yl) phosphonium chloride]
IC50 (crystal violet): 2200 nM
viability at 1 µM (MCF7, 1 μM, 48 hrs, crystal violet, read-out: mean percentage of viable cells compared to non-treated controls): 83.3%
viability at 2 µM (MCF7, 2 μM, 48 hrs, crystal violet, read-out: mean percentage of viable cells compared to non-treated controls): 48.2%
viability at 5 µM (MCF7, 5 μM, 48 hrs, crystal violet, read-out: mean percentage of viable cells compared to non-treated controls): 15.2%
viability at 10 µM (MCF7, 10 μM, 48 hrs, crystal violet, read-out: mean percentage of viable cells compared to non-treated controls): 11.9%

From patent US20200078379A1, “DEFEROXAMINE DERIVATIVES AS MEDICAMENTS” (BIOTECHNOLOGICKY USTAV AV CR, V.V.I., priority 2017, published 2020)
